Source: ChEMBL document CHEMBL1146889, “Homo-cysteinyl peptide inhibitors of the L1 metallo-beta-lactamase, and SAR as determined by combinatorial library synthesis” (Bioorg Med Chem Lett, 2006)
pKi: −log10 of the molar value.

The compounds below were run against Beta-lactamase L1 (Stenotrophomonas maltophilia, UniProt P52700) (assay: Inhibition of Stenotrophomonas maltophilia L1 metallo beta lactamase).
Sequence of Beta-lactamase L1 (P52700 whole entry): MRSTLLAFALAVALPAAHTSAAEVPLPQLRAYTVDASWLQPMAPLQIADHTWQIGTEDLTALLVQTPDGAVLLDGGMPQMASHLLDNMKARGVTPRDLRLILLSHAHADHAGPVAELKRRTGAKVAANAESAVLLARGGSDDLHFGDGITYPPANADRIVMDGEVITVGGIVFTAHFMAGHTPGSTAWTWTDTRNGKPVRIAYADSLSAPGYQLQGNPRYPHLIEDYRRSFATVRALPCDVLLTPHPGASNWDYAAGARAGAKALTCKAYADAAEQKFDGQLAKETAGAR

| pKi | SMILES |
| --- | --- |
| 6.46 | O=C(Cc1ccc(Br)cc1)NC(CCS)C(=O)N[C@H](Cc1ccccc1)C(=O)O (some centres not stated) |
| 6.54 | O=C(NC(CCS)C(=O)N[C@H](Cc1ccccc1)C(=O)O)c1cc2ccccc2[nH]1 (some centres not stated) |
| 6.80 | O=C(NC(CCS)C(=O)N[C@H](Cc1ccccc1)C(=O)O)c1ccc(-c2ccccc2[N+](=O)[O-])o1 (some centres not stated) |
| 6.59 | O=C(NC(CCS)C(=O)N[C@H](Cc1ccccc1)C(=O)O)c1c[nH]c(=O)c(Cl)c1 (some centres not stated) |
| 8.24 | NC(=O)[C@@H](Cc1ccccc1)NC(=O)C(CCS)NC(=O)c1cc(O)cc(C(=O)O)c1 (stereo in doubt; 95) |
| 6.64 | CCCCc1ccc(C(=O)NC(CCS)C(=O)N[C@H](Cc2ccccc2)C(=O)O)nc1 (stereo in doubt; 6) |
| 6.41 | CC(=O)Nc1ccc(CC(=O)NC(CCS)C(=O)N[C@H](Cc2ccccc2)C(=O)O)cc1[N+](=O)[O-] (some centres not stated) |
| 6.70 | Cc1cc(C(=O)NC(CCS)C(=O)N[C@H](Cc2ccccc2)C(=O)O)cc(C)c1OCc1ccccc1 (some centres not stated) |
| 6.11 | O=C(CCC1CCCCC1)NC(CCS)C(=O)N[C@H](Cc1ccccc1)C(=O)O (some centres not stated) |
| 6.27 | Cc1cc(C(=O)NC(CCS)C(=O)N[C@H](Cc2ccccc2)C(=O)O)cc(C)c1O (some centres not stated) |
| 7.59 | NC(=O)[C@@H](Cc1ccccc1)NC(=O)C(CCS)NC(=O)c1cccc(C(=O)O)n1 (some centres not stated) |
| 8.68 | NC(=O)[C@@H](Cc1ccccc1)NC(=O)C(CCS)NC(=O)c1cc(O)cc(C(=O)O)c1 (single isomer, unassigned; diastereomer 1) |
| 6.85 | O=C(O)c1cc(O)cc(C(=O)NC(CCS)C(=O)N[C@H](Cc2ccccc2)C(=O)O)c1 (stereo in doubt; 49) [listing 1 of 2 here] |
| 6.89 | NC(=O)[C@@H](Cc1ccccc1)NC(=O)C(CCS)NC(=O)c1cc(O)cc(C(=O)O)c1 (single isomer, unassigned) |
| 6.06 | CCCCc1ccc(C(=O)NC(CS)C(=O)N[C@H](Cc2ccccc2)C(=O)O)nc1 (some centres not stated) |
| 6.85 | O=C(O)c1cc(O)cc(C(=O)NC(CCS)C(=O)N[C@H](Cc2ccccc2)C(=O)O)c1 (stereo in doubt; 96) |
| 7.92 | O=C(O)c1cccc(C(=O)NC(CCS)C(=O)N[C@H](Cc2ccccc2)C(=O)O)n1 (stereo in doubt; 84) [listing 1 of 2 here] |
| 5.44 | O=C(Cc1ccc(Br)cc1)NC(CS)C(=O)N[C@H](Cc1ccccc1)C(=O)O (some centres not stated) |
| 6.92 | O=C(O)c1cccc(C(=O)NC(CCS)C(=O)N[C@H](Cc2ccccc2)C(=O)O)n1 (stereo in doubt; 94) |
| 6.64 | CCCCc1ccc(C(=O)NC(CCS)C(=O)N[C@H](Cc2ccccc2)C(=O)O)nc1 (stereo in doubt; 91) [listing 1 of 2 here] |

Each compound was assayed against Beta-lactamase L1 (Stenotrophomonas maltophilia) (UniProt P52700) (assay: Inhibition of Stenotrophomonas maltophilia L1 metallo beta lactamase at 200 uM).
Sequence of Beta-lactamase L1 (Stenotrophomonas maltophilia) (P52700 34-290 limits assumed): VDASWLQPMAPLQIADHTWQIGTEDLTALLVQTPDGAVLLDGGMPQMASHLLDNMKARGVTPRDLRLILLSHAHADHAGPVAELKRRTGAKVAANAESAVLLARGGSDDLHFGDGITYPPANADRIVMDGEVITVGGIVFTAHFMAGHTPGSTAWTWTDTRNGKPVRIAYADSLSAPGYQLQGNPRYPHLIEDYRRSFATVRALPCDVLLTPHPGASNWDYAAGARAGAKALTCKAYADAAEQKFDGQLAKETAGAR

| inhibition [%] | SMILES |
| --- | --- |
| 41 | O=C(NC(CCS)C(=O)N[C@H](Cc1ccccc1)C(=O)O)c1ccc([N+](=O)[O-])cc1 (some centres not stated) |
| 81 | CCCCc1ccc(C(=O)NC(CCS)C(=O)N[C@H](Cc2ccccc2)C(=O)O)nc1 (stereo in doubt; 91) [listing 2 of 2 here] |
| 81 | O=C(Cc1ccc(Br)cc1)NC(CCS)C(=O)N[C@H](Cc1ccccc1)C(=O)O (some centres not stated) |
| 81 | O=C(NC(CCS)C(=O)N[C@H](Cc1ccccc1)C(=O)O)c1cc2ccccc2[nH]1 (some centres not stated) |
| 41 | CCCCCCCC(=O)NC(CCS)C(=O)N[C@H](Cc1ccccc1)C(=O)O (some centres not stated) |
| 81 | O=C(NC(CCS)C(=O)N[C@H](Cc1ccccc1)C(=O)O)c1ccc(-c2ccccc2[N+](=O)[O-])o1 (some centres not stated) |
| 61 | O=C(NC(CCS)C(=O)N[C@H](Cc1ccccc1)C(=O)O)C1CCCC1 (some centres not stated) |
| 81 | O=C(O)c1cccc(C(=O)NC(CCS)C(=O)N[C@H](Cc2ccccc2)C(=O)O)n1 (stereo in doubt; 84) [listing 2 of 2 here] |
| 61 | O=C(Cc1cccc2ccccc12)NC(CCS)C(=O)N[C@H](Cc1ccccc1)C(=O)O (some centres not stated) |
| 41 | Nc1nc(CC(=O)NC(CCS)C(=O)N[C@H](Cc2ccccc2)C(=O)O)cs1 (some centres not stated) |
| 61 | O=C(NC(CCS)C(=O)N[C@H](Cc1ccccc1)C(=O)O)c1ccccc1[N+](=O)[O-] (some centres not stated) |
| 41 | O=C(CCc1cccnc1)NC(CCS)C(=O)N[C@H](Cc1ccccc1)C(=O)O (some centres not stated) |
| 61 | C=Cc1ccc(C(=O)NC(CCS)C(=O)N[C@H](Cc2ccccc2)C(=O)O)cc1 (some centres not stated) |
| 61 | O=C(NC(CCS)C(=O)N[C@H](Cc1ccccc1)C(=O)O)c1cc2ccccc2s1 (some centres not stated) |
| 41 | CCCC(=O)NC(CCS)C(=O)N[C@H](Cc1ccccc1)C(=O)O (some centres not stated) |
| 81 | CC(=O)Nc1ccc(CC(=O)NC(CCS)C(=O)N[C@H](Cc2ccccc2)C(=O)O)cc1[N+](=O)[O-] (some centres not stated) |
| 81 | Cc1cc(C(=O)NC(CCS)C(=O)N[C@H](Cc2ccccc2)C(=O)O)cc(C)c1OCc1ccccc1 (some centres not stated) |
| 41 | Cn1cccc1C(=O)NC(CCS)C(=O)N[C@H](Cc1ccccc1)C(=O)O (some centres not stated) |
| 61 | O=C(COc1ccccc1)NC(CCS)C(=O)N[C@H](Cc1ccccc1)C(=O)O (some centres not stated) |
| 41 | O=C(Cc1c[nH]cn1)NC(CCS)C(=O)N[C@H](Cc1ccccc1)C(=O)O (some centres not stated) |
| 61 | O=C(NC(CCS)C(=O)N[C@H](Cc1ccccc1)C(=O)O)c1ccno1 (some centres not stated) |
| 61 | O=C(CC12CC3CC(CC(C3)C1)C2)NC(CCS)C(=O)N[C@H](Cc1ccccc1)C(=O)O (some centres not stated) |
| 41 | NC(=O)CCC(=O)NC(CCS)C(=O)N[C@H](Cc1ccccc1)C(=O)O (some centres not stated) |
| 81 | O=C(CCC1CCCCC1)NC(CCS)C(=O)N[C@H](Cc1ccccc1)C(=O)O (some centres not stated) |
| 61 | Cc1ccc(C(=O)NC(CCS)C(=O)N[C@H](Cc2ccccc2)C(=O)O)c(O)n1 (some centres not stated) |
| 81 | Cc1cc(C(=O)NC(CCS)C(=O)N[C@H](Cc2ccccc2)C(=O)O)cc(C)c1O (some centres not stated) |

| inhibition [%] | SMILES |
| --- | --- |
| 41 | O=C(O)CCCCC(=O)NC(CCS)C(=O)N[C@H](Cc1ccccc1)C(=O)O (some centres not stated) |
| 41 | O=C(CO)NC(CCS)C(=O)N[C@H](Cc1ccccc1)C(=O)O (some centres not stated) |
| 41 | Cc1ccc(C(=O)NC(CCS)C(=O)N[C@H](Cc2ccccc2)C(=O)O)s1 (some centres not stated) |
| 61 | O=C(N[C@H](Cc1ccccc1)C(=O)O)C(CCS)NC(=O)C(c1ccccc1)c1ccccc1 (some centres not stated) |
| 61 | O=C(NC(CCS)C(=O)N[C@H](Cc1ccccc1)C(=O)O)c1ccc2[nH]ccc2c1 (some centres not stated) |
| 61 | CC(=O)Nc1cccc(C(=O)NC(CCS)C(=O)N[C@H](Cc2ccccc2)C(=O)O)c1 (some centres not stated) |
| 21 | O=C(/C=C\c1ccco1)NC(CCS)C(=O)N[C@H](Cc1ccccc1)C(=O)O (some centres not stated) |
| 41 | O=C(O)c1cccnc1C(=O)NC(CCS)C(=O)N[C@H](Cc1ccccc1)C(=O)O (some centres not stated) |
| 41 | O=C(NC(CCS)C(=O)N[C@H](Cc1ccccc1)C(=O)O)c1ccco1 (some centres not stated) |
| 41 | CO/N=C(/C(=O)NC(CCS)C(=O)N[C@H](Cc1ccccc1)C(=O)O)c1csc(NC=O)n1 (some centres not stated) |
| 41 | CC(C)C(=O)NC(CCS)C(=O)N[C@H](Cc1ccccc1)C(=O)O (some centres not stated) |
| 41 | CC(=O)CCC(=O)NC(CCS)C(=O)N[C@H](Cc1ccccc1)C(=O)O (some centres not stated) |
| 61 | O=C(N[C@H](Cc1ccccc1)C(=O)O)C(CCS)NC(=O)C12CC3CC(CC(C3)C1)C2 (some centres not stated) |
| 61 | O=C(NC(CCS)C(=O)N[C@H](Cc1ccccc1)C(=O)O)C1CCCCC1 (some centres not stated) |
| 81 | O=C(O)c1cc(O)cc(C(=O)NC(CCS)C(=O)N[C@H](Cc2ccccc2)C(=O)O)c1 (stereo in doubt; 49) [listing 2 of 2 here] |
| 41 | Cc1cn(C)c(CC(=O)NC(CCS)C(=O)N[C@H](Cc2ccccc2)C(=O)O)c1C(=O)O (some centres not stated) |
| 41 | O=C(CC(O)C(=O)O)NC(CCS)C(=O)N[C@H](Cc1ccccc1)C(=O)O (some centres not stated) |
| 41 | O=C(Cc1cccs1)NC(CCS)C(=O)N[C@H](Cc1ccccc1)C(=O)O (some centres not stated) |
| 41 | O=C(NC(CCS)C(=O)N[C@H](Cc1ccccc1)C(=O)O)c1cc[nH]c1 (some centres not stated) |
| 61 | C=C(C(=O)NC(CCS)C(=O)N[C@H](Cc1ccccc1)C(=O)O)C(F)(F)F (some centres not stated) |
| 41 | O=C(O)CCC(=O)NC(CCS)C(=O)N[C@H](Cc1ccccc1)C(=O)O (some centres not stated) |
| 61 | O=C(Cc1ccccc1)NC(CCS)C(=O)N[C@H](Cc1ccccc1)C(=O)O (some centres not stated) |
| 0 | O=C(NC(CCS)C(=O)N[C@H](Cc1ccccc1)C(=O)O)C1CCC1 (some centres not stated) |
| 41 | O=C(Cc1ccsc1)NC(CCS)C(=O)N[C@H](Cc1ccccc1)C(=O)O (some centres not stated) |
| 61 | O=C(NC(CCS)C(=O)N[C@H](Cc1ccccc1)C(=O)O)c1ccc([N+](=O)[O-])c(O)c1 (some centres not stated) |
| 61 | O=C(O)c1ccc(C(=O)NC(CCS)C(=O)N[C@H](Cc2ccccc2)C(=O)O)cc1 (some centres not stated) |

| inhibition [%] | SMILES |
| --- | --- |
| 61 | O=C(NC(CCS)C(=O)N[C@H](Cc1ccccc1)C(=O)O)c1cnccn1 (some centres not stated) |
| 41 | O=C(NC(CCS)C(=O)N[C@H](Cc1ccccc1)C(=O)O)c1ccoc1 (some centres not stated) |
| 41 | O=C(NC(CCS)C(=O)N[C@H](Cc1ccccc1)C(=O)O)c1ccccc1O (some centres not stated) |
| 41 | O=C(NC(CCS)C(=O)N[C@H](Cc1ccccc1)C(=O)O)c1cccc(O)c1 (some centres not stated) |
| 61 | C=C(C)C(=O)NC(CCS)C(=O)N[C@H](Cc1ccccc1)C(=O)O (some centres not stated) |
| 61 | Cc1ccccc1C(=O)NC(CCS)C(=O)N[C@H](Cc1ccccc1)C(=O)O (some centres not stated) |
| 41 | O=C(NC(CCS)C(=O)N[C@H](Cc1ccccc1)C(=O)O)c1ccsc1 (some centres not stated) |
| 41 | O=C(NC(CCS)C(=O)N[C@H](Cc1ccccc1)C(=O)O)c1ccccc1-c1ccccc1 (some centres not stated) |
| 41 | O=C(NC(CCS)C(=O)N[C@H](Cc1ccccc1)C(=O)O)c1cccs1 (some centres not stated) |
| 61 | O=C(NC(CCS)C(=O)N[C@H](Cc1ccccc1)C(=O)O)c1cccnc1S (some centres not stated) |
| 61 | Cc1ccc(C(=O)NC(CCS)C(=O)N[C@H](Cc2ccccc2)C(=O)O)c(Cl)n1 (some centres not stated) |
| 41 | O=C(NC(CCS)C(=O)N[C@H](Cc1ccccc1)C(=O)O)c1ccc2cc[nH]c2c1 (some centres not stated) |
| 41 | C/C=C\C=C\C(=O)NC(CCS)C(=O)N[C@H](Cc1ccccc1)C(=O)O (some centres not stated) |
| 41 | CC(=O)Oc1ccccc1C(=O)NC(CCS)C(=O)N[C@H](Cc1ccccc1)C(=O)O (some centres not stated) |
| 41 | O=C(NC(CCS)C(=O)N[C@H](Cc1ccccc1)C(=O)O)c1ccccc1C(=O)c1ccccc1 (some centres not stated) |
| 61 | O=C(NC(CCS)C(=O)N[C@H](Cc1ccccc1)C(=O)O)c1cccnc1 (some centres not stated) |
| 21 | CC(C)CC(=O)NC(CCS)C(=O)N[C@H](Cc1ccccc1)C(=O)O (some centres not stated) |
| 61 | Cc1nocc1C(=O)NC(CCS)C(=O)N[C@H](Cc1ccccc1)C(=O)O (some centres not stated) |
| 41 | C=CCCC(=O)NC(CCS)C(=O)N[C@H](Cc1ccccc1)C(=O)O (some centres not stated) |
| 41 | Cc1occc1C(=O)NC(CCS)C(=O)N[C@H](Cc1ccccc1)C(=O)O (some centres not stated) |
| 41 | O=C(CC(c1ccccc1)c1ccccc1)NC(CCS)C(=O)N[C@H](Cc1ccccc1)C(=O)O (some centres not stated) |
| 81 | O=C(NC(CCS)C(=O)N[C@H](Cc1ccccc1)C(=O)O)c1cnc(O)c(Cl)c1 (some centres not stated) |
| 21 | O=C(/C=C\c1c[nH]c2ccccc12)NC(CCS)C(=O)N[C@H](Cc1ccccc1)C(=O)O (some centres not stated) |
| 61 | Cc1ccsc1C(=O)NC(CCS)C(=O)N[C@H](Cc1ccccc1)C(=O)O (some centres not stated) |
| 61 | O=C(Cc1c[nH]c2ccccc12)NC(CCS)C(=O)N[C@H](Cc1ccccc1)C(=O)O (some centres not stated) |
